Results from US20260325685A1, “Radiopharmaceutical Compositions Targeting Carbonic Anhydrase IX and Uses Thereof” (RayzeBio, Inc., priority 2023, published 2026).
pKd: −log10 of the molar value. Where two headings read alike, the source gives them in different places.

Legend:
human CA-IX = target: T1, human CA-IX (Homo sapiens, UniProt Q16790); experiment: Surface Plasmon Resonance (SPR) binding kinetics to recombinant human CA-IX (Biacore 8K, single-cycle kinetics, 1:1 binding model)
T1 construct: purchased Acro CA9-H82E3
Experimental: (§1) G1. Surface Plasmon Resonance Assay Conditions for hCA-IX and hCA-XII
(§2) Surface Plasmon Resonance (SPR) experiments were conducted on a Biacore 8K instrument (Cytiva, Marlborough, MA) to determine the binding kinetics of the compound to recombinant human CA-IX (Acro, CA9-H82E3) and CA-XII (Creative BioMart, CA12-261H) proteins. The ligands were diluted to 10 μg/mL in PBS-P+ buffer (20 mM phosphate buffer, pH 7.4, with 2.7 mM KCl, 137 mM NaCl, and 0.05% Tween 20) and captured on Series S Streptavidin Sensor Chips (Cytiva, 29699621) to 1200-1800 response units (RU) using a flow rate of 5 μL/min and injection times of 180 seconds for human CA-IX and 75 seconds for human CA-XII. Analyte binding was evaluated using a single-cycle kinetics method over 9 analyte concentrations (100-0.39 nM) in PBS-P+ buffer with 1% DMSO using a 50 μL/min. flow rate, 120 second association time, and 1200 second dissociation time. The flow cell temperature was set to 25° C. Analyte binding curves were fit to a 1:1 binding kinetic model in Biacore Insight Evaluation software (version 4.0.8.20368) following reference flow cell subtraction and DMSO correction to derive the association and dissociation binding constants.

human CA-XII = target: T2, human CA-XII (Homo sapiens, UniProt O43570); experiment: Surface Plasmon Resonance (SPR) binding kinetics to recombinant human CA-XII (Biacore 8K, single-cycle kinetics, 1:1 binding model)
T2 construct: purchased Creative BioMart CA12-261H
Experimental: as §1, §2

[1] = Chelated Metal: Lu-175; SPR, 25° C., pH 7.4; read-out: CAIX KD
[2] = Chelated Metal: Lu-175, 25° C., pH 7.4, read-out: CAXII KD
[3] = read-out: CAIX KD; Chelated Metal: Lu-175; SPR, 25° C., pH 7.4
[4] = read-out: CAXII KD, Chelated Metal: Lu-175, 25° C., pH 7.4
[5] = Chelated Metal: None; SPR, 25° C., pH 7.4; read-out: CAIX KD
[6] = KD ratio CAXII/CAIX; Chelated Metal: None
[7] = Chelated Metal: None, 25° C., pH 7.4, read-out: CAXII KD

T2 sequence (O43570 25-354): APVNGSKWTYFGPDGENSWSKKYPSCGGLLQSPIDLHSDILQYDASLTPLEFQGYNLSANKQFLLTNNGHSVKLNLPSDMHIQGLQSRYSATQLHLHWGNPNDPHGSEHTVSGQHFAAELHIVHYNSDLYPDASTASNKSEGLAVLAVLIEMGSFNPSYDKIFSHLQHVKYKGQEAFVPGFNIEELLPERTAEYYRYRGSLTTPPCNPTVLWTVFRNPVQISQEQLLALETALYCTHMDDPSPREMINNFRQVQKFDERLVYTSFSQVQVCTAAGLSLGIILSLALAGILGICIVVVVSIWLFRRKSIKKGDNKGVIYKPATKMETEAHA

Compound	pKd (human CA-IX; [1])	pKd (human CA-XII; [2])	other results
NS(=O)(=O)c1nnc(NC(=O)C23CC(c4cn(CCCC[C@@H](C(=O)NCCOCCOCCNC(=O)CN5CCN(CC(=O)O)CCN(CC(=O)O)CCN(CC(=O)O)CC5)n5cc(C[C@H](NC(=O)C[C@H](NC(=O)c6n[nH]c7ccccc67)C(=O)O)C(=O)O)nn5)nn4)(C2)C3)s1.[Lu+3] [Compound 101.1]	> 9.00	8.00 to 8.60	
CC(CCC(=O)N[C@@H](CC(=O)N[C@@H](Cc1cn([C@@H](CCCCn2cc(C34CC(C(=O)Nc5nnc(S(N)(=O)=O)s5)(C3)C4)nn2)C(=O)NCCOCCOCCNC(=O)CN2CCN(CC(=O)O)CCN(CC(=O)O)CCN(CC(=O)O)CC2)nn1)C(=O)O)C(=O)O)(c1ccc(O)cc1)c1ccc(O)cc1.[Lu+3] [Compound 101.2]	> 9.00	8.00 to 8.60	
CC(CCC(=O)N[C@@H](CC(=O)N[C@@H](Cc1cn([C@@H](CCCCn2cc(C34CCC(C(=O)Nc5nnc(S(N)(=O)=O)s5)(CC3)CC4)nn2)C(=O)NCCOCCOCCNC(=O)CN2CCN(CC(=O)O)CCN(CC(=O)O)CCN(CC(=O)O)CC2)nn1)C(=O)O)C(=O)O)(c1ccc(O)cc1)c1ccc(O)cc1.[Lu+3] [Compound 101]			pKd (human CA-IX; [3]): > 9.00; pKd (human CA-XII; [4]): > 9.00
CC(CCCC(=O)N1CCC(C(=O)O)(C(=O)NCC(=O)N[C@@H](CCCCn2cc(CCCC(=O)Nc3nnc(S(N)(=O)=O)s3)nn2)C(=O)NCCOCCOCCNC(=O)CN2CCN(CC(=O)O)CCN(CC(=O)O)CCN(CC(=O)O)CC2)CC1)(c1ccc(O)cc1)c1ccc(O)cc1.[Lu+3] [Compound 102.1]	> 9.00	< 8.00	
CC(CC(=O)N1CCC(C(N)=O)(C(=O)NCC(=O)N[C@@H](CCCCn2cc(CCCC(=O)Nc3nnc(S(N)(=O)=O)s3)nn2)C(=O)NCCOCCOCCNC(=O)CN2CCN(CC(=O)O)CCN(CC(=O)O)CCN(CC(=O)O)CC2)CC1)(c1ccc(O)cc1)c1ccc(O)cc1.[Lu+3] [Compound 102.2]	8.00 to 8.60	< 8.00	
CC(CCCC(=O)N1CCC(C(N)=O)(C(=O)NCC(=O)N[C@@H](CCCCn2cc(CCCC(=O)Nc3nnc(S(N)(=O)=O)s3)nn2)C(=O)NCCOCCOCCNC(=O)CN2CCN(CC(=O)O)CCN(CC(=O)O)CCN(CC(=O)O)CC2)CC1)(c1ccc(O)cc1)c1ccc(O)cc1 [Compound 102.3]			pKd (human CA-IX; [5]): > 9.00; Ratio (CAXII/CAIX) (human CA-IX; [6]): *** (10 < *** ≤ 50); pKd (human CA-XII; [7]): < 8.00
CC(CC(=O)N1CCC(C(=O)O)(C(=O)NCC(=O)N[C@@H](CCCCn2cc(CCCC(=O)Nc3nnc(S(N)(=O)=O)s3)nn2)C(=O)NCCOCCOCCNC(=O)CN2CCN(CC(=O)O)CCN(CC(=O)O)CCN(CC(=O)O)CC2)CC1)(c1ccc(O)cc1)c1ccc(O)cc1.[Lu+3] [Compound 102.4]	> 9.00	8.00 to 8.60	
CC(CCCC(=O)N1CCC(C(=O)O)(C(=O)NCC(=O)N[C@@H](CCCCn2cc(C34CCC(C(=O)Nc5nnc(S(N)(=O)=O)s5)(CC3)CC4)nn2)C(=O)NCCOCCOCCNC(=O)CN2CCN(CC(=O)O)CCN(CC(=O)O)CCN(CC(=O)O)CC2)CC1)(c1ccc(O)cc1)c1ccc(O)cc1.[Lu+3] [Compound 102.5]	> 9.00	8.00 to 8.60	
CC(CCCC(=O)N1CCC(C(=O)O)(C(=O)NCC(=O)N[C@@H](CCCCn2cc(C34CC(C(=O)Nc5nnc(S(N)(=O)=O)s5)(C3)C4)nn2)C(=O)NCCOCCOCCNC(=O)CN2CCN(CC(=O)O)CCN(CC(=O)O)CCN(CC(=O)O)CC2)CC1)(c1ccc(O)cc1)c1ccc(O)cc1.[Lu+3] [Compound 102.6]	> 9.00	< 8.00	
CC(CCCOc1cc(NC(CC(=O)N[C@@H](CCCCn2cc(CCCC(=O)Nc3nnc(S(N)(=O)=O)s3)nn2)C(=O)NCCOCCOCCNC(=O)CN2CCN(CC(=O)O)CCN(CC(=O)O)CCN(CC(=O)O)CC2)C(=O)O)cc(C(=O)O)c1)(c1ccc(O)cc1)c1ccc(O)cc1.[Lu+3] (stereo partly shown) [Compound 102.7]	> 9.00	8.00 to 8.60	
NS(=O)(=O)c1nnc(NC(=O)CCCc2nnn(CCCC[C@H](NC(=O)C[C@H](Nc3cc(NC(=O)c4n[nH]c5ccc(O)cc45)cc(C(=O)O)c3)C(=O)O)C(=O)NCCOCCOCCNC(=O)CN3CCN(CC(=O)O)CCN(CC(=O)O)CCN(CC(=O)O)CC3)c2C(=O)O)s1.[Lu+3] [Compound 102.8]	> 9.00	8.60 to 9.00	
CC(CCC(=O)N1CCC(C(=O)O)(C(=O)NCC(=O)N[C@@H](CCCCn2cc(CCCC(=O)Nc3nnc(S(N)(=O)=O)s3)nn2)C(=O)NCCOCCOCCNC(=O)CN2CCN(CC(=O)O)CCN(CC(=O)O)CCN(CC(=O)O)CC2)CC1)(c1ccc(O)cc1)c1ccc(O)cc1.[Lu+3] [Compound 102]			pKd (human CA-IX; [3]): 8.60 to 9.00; pKd (human CA-XII; [4]): < 8.00
CC(CCC(=O)N[C@@H](CC(=O)N[C@@H](CCC(=O)NC1(C(=O)NCCOCCOCCNC(=O)CN2CCN(CC(=O)O)CCN(CC(=O)O)CCN(CC(=O)O)CC2)CN(C(=O)Cn2cc(CCCC(=O)Nc3nnc(S(N)(=O)=O)s3)nn2)C1)C(=O)O)C(=O)O)(c1ccc(O)cc1)c1ccc(O)cc1.[Lu+3] [Compound 103.1]	8.60 to 9.00	8.00 to 8.60	
CC(CCC(=O)N[C@@H](CC(=O)N[C@@H](CCC(=O)NC1(C(=O)NCCOCCOCCNC(=O)CN2CCN(CC(=O)O)CCN(CC(=O)O)CCN(CC(=O)O)CC2)CCN(C(=O)Cn2cc(CCCC(=O)Nc3nnc(S(N)(=O)=O)s3)nn2)CC1)C(=O)O)C(=O)O)(c1ccc(O)cc1)c1ccc(O)cc1.[Lu+3] [Compound 103.2]	8.60 to 9.00	8.00 to 8.60	
CC(CCC(=O)N[C@@H](CC(=O)N[C@@H](CC(=O)NC1(C(=O)NCCOCCOCCNC(=O)CN2CCN(CC(=O)O)CCN(CC(=O)O)CCN(CC(=O)O)CC2)CN(C(=O)Cn2cc(CCC(=O)Nc3nnc(S(N)(=O)=O)s3)nn2)C1)C(=O)O)C(=O)O)(c1ccc(O)cc1)c1ccc(O)cc1.[Lu+3] [Compound 103.3]	8.00 to 8.60	< 8.00	
CC(CCC(=O)N[C@@H](CC(=O)N[C@@H](CC(=O)NC1(C(=O)NCCOCCOCCNC(=O)CN2CCN(CC(=O)O)CCN(CC(=O)O)CCN(CC(=O)O)CC2)CN(C(=O)Cn2cc(CCCCC(=O)Nc3nnc(S(N)(=O)=O)s3)nn2)C1)C(=O)O)C(=O)O)(c1ccc(O)cc1)c1ccc(O)cc1.[Lu+3] [Compound 103.4]	8.00 to 8.60	8.00 to 8.60	
CC(CCC(=O)N[C@@H](CC(=O)N[C@@H](CC(=O)NC1(C(=O)NCCOCCOCCNC(=O)CN2CCN(CC(=O)O)CCN(CC(=O)O)CCN(CC(=O)O)CC2)CN(C(=O)Cn2cc(CCCC(=O)Nc3nnc(S(N)(=O)=O)s3)nn2)C1)C(=O)O)C(=O)O)(c1ccc(O)cc1)c1ccc(O)cc1.[Lu+3] [Compound 103]			pKd (human CA-IX; [3]): 8.60 to 9.00; pKd (human CA-XII; [4]): 8.00 to 8.60
CC(CCC(=O)N[C@@H](CC(=O)N[C@@H](CC(=O)N1CCN(C(=O)CN2CCN(CC(=O)O)CCN(CC(=O)O)CCN(CC(=O)O)CC2)C[C@H]1CCCCn1cc(C23CCC(C(=O)Nc4nnc(S(N)(=O)=O)s4)(CC2)C3)nn1)C(=O)O)C(=O)O)(c1ccc(O)cc1)c1ccc(O)cc1 [Compound 104.1]			pKd (human CA-IX; [5]): > 9.00; Ratio (CAXII/CAIX) (human CA-IX; [6]): * (1 < * < 5); pKd (human CA-XII; [7]): > 9.00
CC(CCC(=O)N[C@@H](CC(=O)N[C@@H](CC(=O)N1CCN(C(=O)CN2CCN(CC(=O)O)CCN(CC(=O)O)CCN(CC(=O)O)CC2)C[C@@H]1CCCCn1cc(C23CCC(C(=O)Nc4nnc(S(N)(=O)=O)s4)(CC2)C3)nn1)C(=O)O)C(=O)O)(c1ccc(O)cc1)c1ccc(O)cc1 [Compound 104.2]			pKd (human CA-IX; [5]): > 9.00; Ratio (CAXII/CAIX) (human CA-IX; [6]): * (1 < * < 5); pKd (human CA-XII; [7]): > 9.00
CC(CCC(=O)N[C@@H](CC(=O)N[C@@H](CC(=O)N1CCN(C(=O)CN2CCN(CC(=O)O)CCN(CC(=O)O)CCN(CC(=O)O)CC2)CC1CCCCn1cc(CCCC(=O)Nc2nnc(S(N)(=O)=O)s2)nn1)C(=O)O)C(=O)O)(c1ccc(O)cc1)c1ccc(O)cc1.[Lu+3] (stereo partly shown) [Compound 104]			pKd (human CA-IX; [3]): 8.60 to 9.00; pKd (human CA-XII; [4]): 8.00 to 8.60
